Experiments:
[1] = Electrochemical activity: polarographic reduction on mercury dripping electrode; type: physicochemical; conditions: for number of electrons participating in the reduction reaction: calculated with Geirovsky-Ilkovich equation; for i: 2.0% sodium chloride background, 9·10^−4 M; for i / −E1/2: 37° C., forward trace, average for the group of compounds; for −E1/2: vs SCE; for half-wave potential more positive at reverse stroke compared to forward stroke: polarograms of reverse stroke
Description: The study was carried out on a general-purpose polarograph PU-1 with a two-coordinate recorder of the “LKD” type using a three-electrode thermostatically controlled polarographic cell and mercury dripping electrode (MDE) with forced separation of the drop and a dropping period of 0.5 second. A platinum wire was used as an auxiliary electrode and a saturated calomel electrode (SCE) was used as a control electrode.
2.0% solutions of sodium chloride having pH 7.0, 7.2, 7.4, 7.6 were used as a background; the pH values of the background solution were corrected by a solution of sodium hydroxide. The polarographic cell was filled with 5.0 ml of the background solution and for 5 minutes was purged with nitrogen for removing the dissolved oxygen. Then 0.5 ml of solution of the studied substance was added to the background solution, and the polarogram was recorded as a polarographic wave. The concentration of the compounds in the polarographic cell was 9·10^−4 M.
The pH was measured on the pH-meter with an accuracy of +0.05 pH units. The polarographic measurements were carried out at a temperature of 37° C. The recording of polarograms of the investigated materials was effected under conditions of DC current at a scanning rate of the potential 10.0 mV/s with a active scanning stroke from a potential 0 to −0.5 V and sweep retrace from a −0.5 V to 0. The electric-current sensitivity was 5.0 mkA. The scale by the coordinate of the potentials was 50.0 mV/cm. The values of potentials of the half-wave E1/2 of the investigated materials are given with respect to the SCE potential.
The polarogram parameters such as a limiting current ilim and E1/2 were determined by the graphic method. The number of electrons participating in the reaction was calculated on the basis of the analysis of the polarographic wave using the Geirovsky-Ilkovich equation.
The calculation of the number of electrons participating in the reduction reaction was effected using the Geirovsky-Ilkovich equation: […]

[2] = Chronic toxicity of suppositories: indexes of peripheral blood; type: in vivo, rats; design: Thrombocytes: unit not given here; conditions: male rats, suppositories rectally; for Basophiles / Juveniles: 1 month/2 months (one value given), control 0

For “disodium salt of 3-κapõoκcℏ-7-(β-D-ribofuranosile)pyrido[2,3-d]-6H-pyridazine-5,8-dione [Compound 5]”, which “number of electrons participating in the reduction reaction” value (from here on “number … in the reduction reaction”) [1] is on record?
Its value is 3.72.

And the i ([1]; pH 7.0)?
The i was 0.26 ± 0.04 mkA.

What about the “−E1/2” value ([1]; pH 7.0) of the same molecule?
The value was 0.11 ± 0.02 V.

What about the i ([1]; pH 7.2) of the same molecule?
Its i is 0.31 ± 0.02 mkA.

What about the “−E1/2” value ([1]; pH 7.2) of the same molecule?
The value was 0.11 ± 0.03 V.

And the i ([1]; pH 7.4)?
The i was 0.27 ± 0.03 mkA.

What about the “−E1/2” value ([1]; pH 7.4) of the same molecule?
The value was 0.105 ± 0.01 V.

And the i ([1]; pH 7.6)?
The i was 0.30 ± 0.01 mkA.

And the “−E1/2” value ([1]; pH 7.6)?
The value was 0.105 ± 0.02 V.

What about the “half-wave potential more positive at reverse stroke compared to forward stroke” value [1] of the same molecule?
Its value is 25.0 mV.

For `O=c1[nH][nH]c(=O)c2nccnc12.[Na]` [Compound 26, sodium salt of pyrazine[2,3-d]-6H-pyridazine-5,8-dione], which “half-wave potential more positive at reverse stroke compared to forward stroke” value [1] is on record?
Its value is 27.0 mV.

Which results are given for `O=C([O-])c1ncnc2c(=O)n([C@@H]3O[C@H](CO)[C@@H](O)[C@H]3O)[nH]c(=O)c12.[Na+]` [Compound 34, sodium salt of 4-carboxy-7-(β-D-ribofuranosile)pyrimido[4,5-D]-6H-pyridazine-5,8-dione]?
Basophiles ([2]; 50 mg/kg): 0%; Juveniles ([2]; 50 mg/kg): 0%; Stab neutrophil ([2]; 50 mg/kg, 1 month, control 0.8 ± 0.4): 1.0 ± 0.4%; REE ([2]; 50 mg/kg, 1 month, control 2.2 ± 0.4): 1.8 ± 0.5 mm/h; Reticulocytes ([2]; 50 mg/kg, 1 month, control 2.8%0.3): 2.7 ± 0.1%; Eosinophiles ([2]; 50 mg/kg, 1 month, control 4.0 + 0.3): 3.5 ± 1.0%; Erythrocytes ([2]; 50 mg/kg, 1 month, control 5.6 ± 0.1): 5.6 ± 0.1 mln/mm^3; Hemoglobin ([2]; 50 mg/kg, 1 month, control 10.5 ± 0.2): 10.6 ± 0.1 mmol/L; Leukocyte ([2]; 50 mg/kg, 1 month, control 17.4 ± 1.3): 15.9 ± 1.3 thousand/mm^3; Haematocrite ([2]; 50 mg/kg, 1 month, control 45.9 ± 1.7): 46.9 ± 1.1%; Average volume of erythrocytes ([2]; 50 mg/kg, 1 month, control 81.4 ± 1.7): 81.6 ± 1.9 Mkm^3; Coagulation, time ([2]; 50 mg/kg, 1 month, control 152 ± 10.2): 148 ± 16 s; Thrombocytes ([2]; 50 mg/kg, 1 month, control 707 ± 23): 670 ± 23; REE ([2]; 50 mg/kg, 2 months, control 1.4 ± 0.2): 1.7 ± 0.3 mm/h; Stab neutrophil ([2]; 50 mg/kg, 2 months, control 2.4 ± 0.4): 1.8 ± 0.5%; Reticulocytes ([2]; 50 mg/kg, 2 months, control 2.9 ± 0.2): 2.9 ± 0.2%; Eosinophiles ([2]; 50 mg/kg, 2 months, control 4.4 + 1.2): 4.1 ± 0.4%; Erythrocytes ([2]; 50 mg/kg, 2 months, control 6.1 ± 0.1): 6.1 ± 0.2 mln/mm^3; Hemoglobin ([2]; 50 mg/kg, 2 months, control 11.4 ± 0.2): 11.1 ± 0.2 mmol/L; Leukocyte ([2]; 50 mg/kg, 2 months, control 19.1 ± 1.9): 17.8 ± 1.4 thousand/mm^3; Haematocrite ([2]; 50 mg/kg, 2 months, control 45.9 ± 1.8): 47.5 ± 1.2%; Average volume of erythrocytes ([2]; 50 mg/kg, 2 months, control 74.6 + 1.9): 76.7 ± 1.9 Mkm^3; Coagulation, time ([2]; 50 mg/kg, 2 months, control 316 ± 8): 321 ± 10 s; Thrombocytes ([2]; 50 mg/kg, 2 months, control 593 ± 14): 610 ± 15; Basophiles ([2]; 500 mg/kg): 0%; Juveniles ([2]; 500 mg/kg): 0%; Stab neutrophil ([2]; 500 mg/kg, 1 month, control 0.8 ± 0.4): 0.9 ± 0.2%; REE ([2]; 500 mg/kg, 1 month, control 2.2 ± 0.4): 2.0 ± 0.4 mm/h; Reticulocytes ([2]; 500 mg/kg, 1 month, control 2.8%0.3): 3.2 ± 0.2%; Eosinophiles ([2]; 500 mg/kg, 1 month, control 4.0 + 0.3): 3.0 ± 0.9%; Erythrocytes ([2]; 500 mg/kg, 1 month, control 5.6 ± 0.1): 5.6 ± 0.2 mln/mm^3; Hemoglobin ([2]; 500 mg/kg, 1 month, control 10.5 ± 0.2): 10.6 ± 0.3 mmol/L; Leukocyte ([2]; 500 mg/kg, 1 month, control 17.4 ± 1.3): 16.9 ± 1.0 thousand/mm^3; Haematocrite ([2]; 500 mg/kg, 1 month, control 45.9 ± 1.7): 48.1 ± 1.5%; Average volume of erythrocytes ([2]; 500 mg/kg, 1 month, control 81.4 ± 1.7): 84.1 ± 1.3 Mkm^3; Thrombocytes ([2]; 500 mg/kg, 1 month, control 707 ± 23): 682 ± 24; REE ([2]; 500 mg/kg, 2 months, control 1.4 ± 0.2): 1.8 ± 0.2 mm/h; Stab neutrophil ([2]; 500 mg/kg, 2 months, control 2.4 ± 0.4): 1.4 ± 0.3%; Reticulocytes ([2]; 500 mg/kg, 2 months, control 2.9 ± 0.2): 3.5 ± 0.3%; Eosinophiles ([2]; 500 mg/kg, 2 months, control 4.4 + 1.2): 3.9 ± 1.4%; Erythrocytes ([2]; 500 mg/kg, 2 months, control 6.1 ± 0.1): 6.6 ± 0.1 mln/mm^3; Hemoglobin ([2]; 500 mg/kg, 2 months, control 11.4 ± 0.2): 12.4 ± 0.4 mmol/L; Leukocyte ([2]; 500 mg/kg, 2 months, control 19.1 ± 1.9): 22.1 ± 1.1 thousand/mm^3; Haematocrite ([2]; 500 mg/kg, 2 months, control 45.9 ± 1.8): 53.1 ± 1.6%; Average volume of erythrocytes ([2]; 500 mg/kg, 2 months, control 74.6 + 1.9): 83.8 ± 1.5 Mkm^3; Coagulation, time ([2]; 500 mg/kg, 2 months, control 316 ± 8): 312 ± 9 s; Thrombocytes ([2]; 500 mg/kg, 2 months, control 593 ± 14): 631 ± 26

For `COP(=O)(OC)C(C)(C)CC(C)=O` [Dimesphosphon, dimethyl ester of 1,1-dimethyl-3-oxybuthyl of phosphonic acid, reference compound], which “number … in the reduction reaction” value [1] is on record?
The value was 1.6.

What about the “electrons consumed during the reduction” value ([1]; conclusion from calculated number) of the same molecule?
Its value is 2.

What about the i ([1]; pH 7.0) of the same molecule?
Its i is 0.10 ± 0.03 mkA.

And the “−E1/2” value ([1]; pH 7.0)?
The value was 0.175 ± 0.01 V.

What about the i ([1]; pH 7.2) of the same molecule?
The i was 0.12 ± 0.03 mkA.

What about the “−E1/2” value ([1]; pH 7.2) of the same molecule?
The value was 0.17 ± 0.02 V.

What about the i ([1]; pH 7.4) of the same molecule?
Its i is 0.11 ± 0.02 mkA.

What about the “−E1/2” value ([1]; pH 7.4) of the same molecule?
Its value is 0.18 ± 0.01 V.

And the i ([1]; pH 7.6)?
Its i is 0.11 ± 0.02 mkA.

What about the “−E1/2” value ([1]; pH 7.6) of the same molecule?
The value was 0.18 ± 0.01 V.

What about the “half-wave potential more positive at reverse stroke compared to forward stroke” value [1] of the same molecule?
The value was 50.0 mV.

What does the source list for “potassium salt of 3-bromine-pyrazine[2,3-Cl]-6H-pyridazine-5,8-dione [Compound 27]”?
number of electrons participating in the reduction reaction [1]: 3.72; i ([1]; pH 7.0): 0.32 ± 0.03 mkA; −E1/2 ([1]; pH 7.0): 0.16 ± 0.02 V; i ([1]; pH 7.2): 0.33 ± 0.04 mkA; −E1/2 ([1]; pH 7.2): 0.19 ± 0.02 V; i ([1]; pH 7.4): 0.34 ± 0.03 mkA; −E1/2 ([1]; pH 7.4): 0.175 ± 0.01 V; i ([1]; pH 7.6): 0.34 ± 0.02 mkA; −E1/2 ([1]; pH 7.6): 0.16 ± 0.015 V; half-wave potential more positive at reverse stroke compared to forward stroke [1]: 20.0 mV

What does the source list for `O=c1[nH]n([C@@H]2O[C@H](CO)[C@@H](O)[C@H]2O)c(=O)c2ncnc(O)c12.[Na]` [Compound 33, sodium salt of 4-hydroxy-7-(β-D-ribofuranosile)pyrimido[4,5-d]-6H-pyridazine-5,8-dione]?
number of electrons participating in the reduction reaction [1]: 3.5; i ([1]; pH 7.0): 0.30 ± 0.05 mkA; −E1/2 ([1]; pH 7.0): 0.08 ± 0.02 V; i ([1]; pH 7.2): 0.26 ± 0.02 mkA; −E1/2 ([1]; pH 7.2): 0.085 ± 0.015 V; i ([1]; pH 7.4): 0.30 ± 0.03 mkA; −E1/2 ([1]; pH 7.4): 0.085 ± 0.02 V; i ([1]; pH 7.6): 0.30 ± 0.02 mkA; −E1/2 ([1]; pH 7.6): 0.09 ± 0.02 V; half-wave potential more positive at reverse stroke compared to forward stroke [1]: 27.0 mV

With `O=c1[nH]n([C@@H]2O[C@H](CO)[C@@H](O)[C@H]2O)c(=O)c2ncccc12.[Na]` [Compound 1, sodium salt of 7-(β-O-ribofuranosile)pyrido[2,3-1]-6H-pyridazine-5,8-dione sodium salt] as the molecule, how does the “number … in the reduction reaction” value [1] read?
The value was 3.72.

And the i ([1]; pH 7.0)?
Its i is 0.26 ± 0.04 mkA.

And the “−E1/2” value ([1]; pH 7.0)?
The value was 0.11 ± 0.02 V.

What about the i ([1]; pH 7.2) of the same molecule?
Its i is 0.31 ± 0.02 mkA.

And the “−E1/2” value ([1]; pH 7.2)?
Its value is 0.11 ± 0.03 V.

And the i ([1]; pH 7.4)?
The i was 0.27 ± 0.03 mkA.

What about the “−E1/2” value ([1]; pH 7.4) of the same molecule?
The value was 0.105 ± 0.01 V.

What about the i ([1]; pH 7.6) of the same molecule?
The i was 0.30 ± 0.01 mkA.

What about the “−E1/2” value ([1]; pH 7.6) of the same molecule?
Its value is 0.105 ± 0.02 V.

What about the “half-wave potential more positive at reverse stroke compared to forward stroke” value [1] of the same molecule?
Its value is 25.0 mV.
